Assay results from patent publication US12612379B2, “Inhibitors of APOL1 and methods of using same” (Vertex Pharmaceuticals Incorporated, priority 2021, dated 2026).

What follows are compounds tested against T1, APOL1 (tet-inducible transgenic APOL1 T-REx-HEK293 cell lines) (Homo sapiens, UniProt O14791) (assay: MultiTox-Fluor Multiplex Cytotoxicity Assay for APOL1 inhibitor properties). Settings: APOL1 induced with 50 ng/mL tet, 24 hours with compound, ratio of dead to live cells, top concentration 10 μM; APOL1 variant (G0/G1/G2) not stated; read-out: IP50 (nM) (i.e., IC50 for cell proliferation).
T1 sequence (O14791 1-398 S342G/I384M): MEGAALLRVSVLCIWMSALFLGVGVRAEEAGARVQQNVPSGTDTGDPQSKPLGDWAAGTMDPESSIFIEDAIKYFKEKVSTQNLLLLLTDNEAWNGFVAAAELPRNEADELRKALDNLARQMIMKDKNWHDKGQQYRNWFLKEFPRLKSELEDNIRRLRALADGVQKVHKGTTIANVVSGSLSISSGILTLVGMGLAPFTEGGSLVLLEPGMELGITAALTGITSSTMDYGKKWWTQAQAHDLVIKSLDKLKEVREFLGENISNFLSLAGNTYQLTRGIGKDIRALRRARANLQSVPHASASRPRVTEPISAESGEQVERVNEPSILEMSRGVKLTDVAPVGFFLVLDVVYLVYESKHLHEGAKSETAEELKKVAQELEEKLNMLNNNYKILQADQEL
Format: cell-based
Procedure: The MultiTox-Fluor Multiplex Cytotoxicity Assay is a single-reagent-addition, homogeneous, fluorescence assay that measures the number of live and dead cells simultaneously in culture wells. The assay measures cell viability and cytotoxicity by detecting two distinct protease activities. The live-cell protease activity is restricted to intact viable cells and is measured using a fluorogenic, cell-permeant peptide glycyl-phenylalanylamino fluorocoumarin (GF-AFC) substrate. The substrate enters intact cells, where it is cleaved to generate a fluorescent signal proportional to the number of living cells. […] A second, cell-impermeant, fluorogenic peptide substrate (bis-AAF-R110 Substrate) is used to measure dead-cell protease that has been released from cells that have lost membrane integrity. A ratio of dead to live cells is used to normalize data.
Briefly, the tet-inducible transgenic APOL1 T-REx-HEK293 cell lines were incubated with 50 ng/mL tet to induce APOL1 in the presence of 3-(2-(4-fluorophenyl)-1H-indol-3-yl)-N-((3S,4R)-4-hydroxy-2-oxopyrrolidin-3-yl)propenamide at 10.03, 3.24, 1.13, 0.356, 0.129, 0.042, 0.129, 0.0045, 0.0015, 0.0005 μM in duplicate for 24 hours in a humidified 37° C. incubator. The MultiTox reagent was added to each well and placed back in the incubator for an additional 30 minutes. The plate was read on the EnVision plate reader. A ratio of dead to live cells was used to normalize, and data was imported, analyzed, and fit using Genedata Screener (Basel, Switzerland) software. Data was normalized using percent of control, no tet (100% viability), and 50 ng/mL tet treated (0% viability), and fit using Smart Fit. The reagents, methods, and complete protocol for the MultiTox assay are described below.
Human embryonic kidney (HEK293) cell lines containing a tet-inducible expression system (T-REx™; Invitrogen, Carlsbad, CA) and Adeno-associated virus site 1 pAAVS1-Puro-APOL1 G0 or pAAVS1-Puro-APOL1 G1 or pAAVS1-Puro-APOL1 G2 Clones G0 DC2.13, G1 DC3.25, and G2 DC4.44 were grown in a T-225 flask at ˜90% confluency in cell growth media (DMEM, 10% Tet-free FBS, 2 mM L-glutamine, 100 Units/mL penicillin-streptomycin, 5 μg/mL blasticidin S HCl, 1 μg/mL puromycin dihydrochloride). Cells were washed with DPBS and then trypsinized to dissociate from the flask. Media was used to quench the trypsin, cells were then pelleted at 200 g and resuspended in fresh cell assay media (DMEM, 2% Tet-free FBS, 2 mM L-glutamine, 100 Units/mL penicillin-streptomycin). Cells were counted and diluted to 1.17×10^6 cells/mL. 20 μL of cells (23,400/well) were dispensed in every well of a 384-well Poly-D-Lysine coated plate using the Multidrop dispenser. The plates were then incubated at room temperature for one hour.
Tetracycline is needed to induce APOL1 expression. 1 mg/mL tet stock in water was diluted to 250 ng/mL (5×) in cell assay media. 60 μL of cell assay media (no tet control) was dispensed in columns 1 and 24, and 60 μL of 5×tet in 384-PP-round bottom plate was dispensed in columns 2 to 23 with the Multidrop dispenser.
Assay ready plates from the Global Compound Archive were ordered using template 384_APOL1Cell_DR10n2_50 uM_v3. Compounds were dispensed at 200 nL in DMSO. The final top concentration was 10 μM with a 10 point 3-fold dilution in duplicate in the MultiTox assay.
20 μL was transferred from the 5×tet plate to the ARP and mixed, then 5 μL of 5×tet and the compounds were transferred to the cell plate and mixed using the Bravo. The cell plate was placed in the humidified 37° C. 5% CO2 incubator for 24 hours.
The MultiTox-Fluor Multiplex Cytotoxicity Assay was performed in accordance with the manufacturer's protocol. After cells were incubated with tet and compound for 24 hours, 25 μL of 1×MultiTox reagent was added to each well using the Multidrop dispenser; the plates were placed on a plate shaker (600 rpm) for 2 minutes, then centrifuged briefly and placed back in the 37° C. incubator for 30 minutes. […]
For `Cc1cccc([C@@]2(O)C[C@@H](c3cn(C)nn3)N[C@@H](C)C2)c1` [Compound 6], the IC50 was 50 to 500 nM. In the case of `Cc1cc([C@@]2(O)C[C@@H](c3cn(C)nn3)N[C@@H](C)C2)ccc1Cl` [Compound 26], the IC50 is reported as ≤ 50 nM. With `C[C@H]1C[C@@](O)(c2ccc(C(F)(F)F)cc2O)C[C@@H](c2cn(C)nn2)N1` [Compound 44] the IC50 was 50 to 500 nM. For `COc1cc([C@]2(O)C[C@H](C)N(C)[C@H](c3cn(C)nn3)C2)ccc1C(F)(F)F` [Compound 42], the IC50 was 50 to 500 nM. Work on `C[C@H]1C[C@@](C#N)(c2ccc(C(F)(F)F)cc2)C[C@@H](c2cn(C)nn2)N1` [Compound 46, (2S,4S,6S)-2-methyl-6-(1-methyltriazol-4-yl)-4-[4-(trifluoromethyl)phenyl]piperidine-4-carbonitrile] yielded an IC50 of 50 to 500 nM. Work on `C[C@H]1C[C@@](O)(c2csc(C(F)(F)F)c2)C[C@@H](c2cn(C)nn2)N1` [Compound 14] yielded an IC50 of 50 to 500 nM. With `C[C@H]1C[C@@](O)(c2ccc3c(cnn3C)c2)C[C@@H](c2cn(C)nn2)N1` [Compound 56] the IC50 was ≥ 500 nM. For `C[C@H]1C[C@@](O)(c2ccc(C(F)(F)F)cc2)C[C@@H](c2cn(C)nn2)N1` [Compound 16], the IC50 was ≤ 50 nM. Work on `C[C@H]1C[C@@](O)(c2ccc(C#N)cc2)C[C@@H](c2cn(C)nn2)N1` [Compound 30] yielded an IC50 of 50 to 500 nM. `C[C@H]1C[C@@](O)(c2ccc(Cl)cc2)C[C@@H](c2cn(C)nn2)N1` [Compound 4] was tested, and the IC50 was ≤ 50 nM. In the case of `C[C@H]1C[C@@](O)(c2ccc(C(F)(F)F)c(C(F)(F)F)c2)C[C@@H](c2cn(C)nn2)N1` [Compound 51], the IC50 is reported as ≤ 50 nM. With `C[C@H]1C[C@@](O)(c2ccc3c(c2)CCC3(F)F)C[C@@H](c2cn(C)nn2)N1` [Compound 41] the IC50 was < 10000 nM. With `C[C@H]1C[C@@](O)(c2ccc(C(F)(F)F)c(OC(F)(F)F)c2)C[C@@H](c2cn(C)nn2)N1` [Compound 50] the IC50 was ≤ 50 nM. `C[C@H]1C[C@@](O)(c2ccc(Cl)c(F)c2)C[C@@H](c2cn(C)nn2)N1` [Compound 13] was tested, and the IC50 was ≤ 50 nM. For `C[C@H]1C[C@@](O)(c2ccccc2)C[C@@H](c2cn(C)nn2)N1` [Compound 7], the IC50 was ≥ 500 nM. `C[C@H]1C[C@@](O)(c2ccc(Cl)cn2)C[C@@H](c2cn(C)nn2)N1` [Compound 18] gave an IC50 of 50 to 500 nM. With `Cc1cc(Cl)ccc1[C@@]1(O)C[C@@H](c2cn(C)nn2)N[C@@H](C)C1` [Compound 21] the IC50 was 50 to 500 nM. `C[C@H]1C[C@@](O)(c2ccc3c(c2)CC(C)(C)O3)C[C@@H](c2cn(C)nn2)N1` [Compound 31] was tested, and the IC50 was ≥ 500 nM. With `C[C@H]1C[C@@](O)(c2ccnc(C(F)(F)F)c2)C[C@@H](c2cn(C)nn2)N1` [Compound 35] the IC50 was ≥ 500 nM. With `C[C@H]1C[C@@](O)(CS(=O)(=O)c2ccc(Br)cc2)C[C@@H](c2cn(C)nn2)N1` [Compound 45] the IC50 was ≥ 500 nM. Compound `Cc1ccc([C@@]2(O)C[C@@H](c3cn(C)nn3)N[C@@H](C)C2)cc1F` [Compound 11] has an IC50 of 50 to 500 nM. With `C[C@H]1C[C@@](O)(c2ccc(Cl)nc2)C[C@@H](c2cn(C)nn2)N1` [Compound 17] the IC50 was 50 to 500 nM. With `COc1cc(Cl)ccc1[C@@]1(O)C[C@@H](c2cn(C)nn2)N[C@@H](C)C1` [Compound 20] the IC50 was ≥ 500 nM. `C[C@H]1C[C@@](O)(c2cccc(C(F)(F)F)c2)C[C@@H](c2cn(C)nn2)N1` [Compound 48] was tested, and the IC50 was 50 to 500 nM. `COc1cc([C@@]2(O)C[C@@H](c3cn(C)nn3)N[C@@H](C)C2)ccc1Cl` [Compound 19] was tested, and the IC50 was ≤ 50 nM. In the case of `C[C@H]1C[C@@](C(N)=O)(c2ccc(Cl)cn2)C[C@@H](c2cn(C)nn2)N1` [Compound 64], the IC50 is reported as ≥ 500 nM. In the case of `C[C@H]1C[C@@](O)(c2ccc(Br)cc2)C[C@@H](c2cn(C)nn2)N1` [Compound 27], the IC50 is reported as ≤ 50 nM. `C[C@H]1C[C@@](O)(c2ccc(F)c(Cl)c2)C[C@@H](c2cn(C)nn2)N1` [Compound 9] gave an IC50 of 50 to 500 nM. For `C[C@H]1C[C@@](O)(Cc2cccc(C(F)(F)F)c2)C[C@@H](c2cn(C)nn2)N1` [Compound 61, (2S,4S,6S)-2-methyl-6-(1-methyltriazol-4-yl)-4-[[3-(trifluoromethyl)phenyl]methyl]piperidin-4-ol], the IC50 was ≥ 500 nM.
